Reference: patent US8202997B2, “Compositions and methods for treating or preventing hypoxic or ischemic injury” (Ikaria, Inc., priority 2008, dated 2012)

Columns and labels:
[1] = tested on: hepatic ischemia-reperfusion (I/R) injury; experiment: Murine hepatic ischemia-reperfusion injury model; format: in vivo, mice; details: for serum liver transaminase (ALT) levels: C57-BL6/J mice, after five hours reperfusion, compared to vehicle
Protocol: The ability of compound (3-1) to provide cytoprotective benefit in a model of hepatic ischemia-reperfusion (I/R) injury was tested in mice.
The mice used in these studies were C57-BL6/J mice, 8-10 weeks, (Jackson Laboratory, Bar Harbor, Me.). Food and water were provided ad libitum. Test animals were allowed to acclimate in a temperature and humidity controlled environment prior to the commencement of experimental procedures.
Mice were anesthetized with ketamine and xylazine and maintained with warming during surgical procedures to induce hepatic ischemia-reperfusion (UR) injury. Specifically, a midline incision was performed to expose the liver, and heparin was injected to prevent blood clotting. Both the hepatic artery and portal vein were clamped with microaneurysm clamps to render the left lateral and median lobes of the liver ischemic. Ischemia proceeded for 45 minutes, with the liver maintained in the peritoneal cavity in its original location and kept moist with gauze soaked with 0.9% normal saline. Control mice received sham surgeries, although hepatic blood flow was not reduced with a microaneurysm clamp. At the end of 45 minutes, microaneurysm clamps were removed. Serum liver transaminase levels (ALT) were tested after five hours of hepatic reperfusion using spectrophotometry and commercially available reagents (Sigma-Aldrich).
Murine hepatic ischemia-reperfusion injury test animals were randomized to four groups. Group 1: vehicle (EtOH/PEG300+0.1% citric acid) treated; Group 2: treatment with 7 mg/kg Compound (3-1); Group 3: treatment with 15.0 mg/kg Compound (3-1). […] ALT levels were reduced in the two treatment groups (7.0 mg/kg, and 15.0 mg/kg), compared to vehicle.

[2] = tested on: myocardial ischemia-reperfusion (I/R) injury; experiment: Murine myocardial ischemia reperfusion model; format: in vivo, mice
Protocol: The ability of compound (3-1) to provide cardioprotective benefits in a myocardial ischemia-reperfusion (I/R) injury model was tested in mice. In this study, it is shown that bolus administration of compound (3-1) into the left ventricular cavity post-ischemia and five minutes prior to a 24-hour reperfusion period reduced myocardial ischemia and reduced myocardial infarct size as a percentage of risk area. The mice used in these studies were C57-BL6/J mice, 8-10 weeks, (Jackson Laboratory, Bar Harbor, Me.). Food and water were provided ad libitum. Test animals were allowed to acclimate in a temperature and humidity controlled environment prior to the commencement of experimental procedures.
Mice were anesthetized with ketamine and pentobarbital sodium and maintained with warming during surgical procedures to induce myocardial ischemia-reperfusion (I/R) injury. […]
After 24 hours of reperfusion, post-ischemia, mice were anesthetized, intubated, and connected to a rodent ventilator. […] Each of the five myocardial slices (1-mm) were weighed, areas of infarction, area at risk (AAR), and non-ischemic left ventricle were assessed with computer-assisted planimetry by an observer blinded to sample identity. […]
Data were analyzed by 2-way ANOVA with post-hoc Bonferroni analysis using StatView software version 5.0 (SAS Institute). […]

SMILES: c1ccc(CSSSSCc2ccccc2)cc1 [Compound 3-1, 1,4-dibenzyltetrasulfane]
- serum liver transaminase (ALT) levels ([1]; 7 mg/kg intraperitoneal bolus post-ischemia (45 min)): statistically significant reduction
- serum liver transaminase (ALT) levels ([1]; 15.0 mg/kg intraperitoneal bolus post-ischemia (45 min)): reduced
- liver transaminase alanine aminotransferase (ALT) measured in serum ([1]; mice, intraperitoneal bolus post-hepatic ischemia, immediately prior to five hour reperfusion, dose not given): decreased
- myocardial infarct size as a percentage of risk area ([2]; C57-BL6/J mice, 7 mg/kg bolus into left ventricular cavity after 30 minutes ischemia, five minutes prior to 24 hour reperfusion): reduced
- myocardial ischemia ([2]; mice, bolus into left ventricular cavity post-ischemia, five minutes prior to 24-hour reperfusion): reduced
